From patent US20060234987A1, “Neuroprotective benzo 1 3 oxathiol 2 ones” (priority 2003, published 2006)
Read-outs that look alike come from different tables or passages of the source.

Assays:
PTP-1B = biological target: T1, PTP-1B (Homo sapiens, UniProt P18031); assay: PTP-1B Assay; assay type: biochemical; details: Table 6
T1 construct: purchased BIOMOL Research Laboratories, Inc
T1 sequence (P18031 1-435): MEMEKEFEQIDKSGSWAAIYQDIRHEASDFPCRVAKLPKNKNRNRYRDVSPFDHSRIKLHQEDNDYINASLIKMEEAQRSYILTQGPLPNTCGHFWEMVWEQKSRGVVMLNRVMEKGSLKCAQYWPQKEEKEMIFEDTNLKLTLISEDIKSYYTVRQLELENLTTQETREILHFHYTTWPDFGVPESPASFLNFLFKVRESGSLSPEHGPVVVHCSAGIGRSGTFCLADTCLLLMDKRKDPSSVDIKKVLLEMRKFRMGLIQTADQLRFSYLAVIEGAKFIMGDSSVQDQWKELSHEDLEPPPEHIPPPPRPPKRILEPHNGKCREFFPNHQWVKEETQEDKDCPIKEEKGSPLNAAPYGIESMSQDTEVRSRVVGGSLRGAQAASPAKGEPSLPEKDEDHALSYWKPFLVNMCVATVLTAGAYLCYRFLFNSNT
Protocol: B) PTP-1B Assay: Inhibition of the phosphatase PTP1B was performed according to reported procedures (Puius, Y. A. et a. Proc. Natl. Acad. Sci., 1997, 94, 13420; Liu, F. J. Biol. Chem., 1996, 271, 31290). PTP1B was purchased from BIOMOL Research Laboratories, Inc.

SCG neurons = assay: Protection of SCG neurons from anti-NGF killing; assay type: cell-based, Sprague Dawley rats; details: Rattus norvegicus, Neuron; anti-NGF antibody, 48 hours, Alamar Blue viability; read-out: IC50, rescue from anti-NGF killing of cultured SCG neurons
Protocol: Neurotrophins are critical to the growth, development, and survival of small fiber neurons of the PNS. SCG neurons are neurons of the PNS that undergo apoptosis upon NGF withdrawal. In a typical experiment SCG neurons are cultured in the presence of NGF, which induces survival and neurite out-growth. After 5 days the NGF is removed by either the addition of anti-NGF polyclonal antibody (Sigma) or by repeated washings (4 times) with NGF free media, resulting in the apoptosis of up to 90% of the neurons after 48 hours, as measured by MTS staining. The addition of selected compounds of Formula I to the final cellular media provides upwards of 100% protection, at drug concentrations ranging from 10 to 50 μM (see Example 62).
Protection of SCG neurons from anti-NGF killing. SCG neurons were isolated from day 1 neonatal Sprague Dawley rats, plated at a cell density of 5,000 cells/well, and incubated in Biowhittaker Ultraculture containing 1% Penstrep, 1% L-glutamine, 0.7% ARAC, 3% rat serum, and NGF (50 ng/mL, Calomone Labs), at 37° C., under a 5% CO2 atmosphere. After 4 days the cells were treated with anti-NGF antibody (Sigma). At this time compound was added and the cells were maintained serum and NGF free for 48 hours, at which time viability of the neurons was assessed using Alamar Blue (Medicorp) staining. Table 3 summarizes selected IC50 values from compounds tested using this protocol.

LAR = biological target: T2, LAR (Homo sapiens, UniProt P10586); assay: LAR Assay; assay type: biochemical; details: Table 6
T2 construct: purchased BIOMOL Research Laboratories, Inc
T2 sequence (P10586 30-1907, species assumed): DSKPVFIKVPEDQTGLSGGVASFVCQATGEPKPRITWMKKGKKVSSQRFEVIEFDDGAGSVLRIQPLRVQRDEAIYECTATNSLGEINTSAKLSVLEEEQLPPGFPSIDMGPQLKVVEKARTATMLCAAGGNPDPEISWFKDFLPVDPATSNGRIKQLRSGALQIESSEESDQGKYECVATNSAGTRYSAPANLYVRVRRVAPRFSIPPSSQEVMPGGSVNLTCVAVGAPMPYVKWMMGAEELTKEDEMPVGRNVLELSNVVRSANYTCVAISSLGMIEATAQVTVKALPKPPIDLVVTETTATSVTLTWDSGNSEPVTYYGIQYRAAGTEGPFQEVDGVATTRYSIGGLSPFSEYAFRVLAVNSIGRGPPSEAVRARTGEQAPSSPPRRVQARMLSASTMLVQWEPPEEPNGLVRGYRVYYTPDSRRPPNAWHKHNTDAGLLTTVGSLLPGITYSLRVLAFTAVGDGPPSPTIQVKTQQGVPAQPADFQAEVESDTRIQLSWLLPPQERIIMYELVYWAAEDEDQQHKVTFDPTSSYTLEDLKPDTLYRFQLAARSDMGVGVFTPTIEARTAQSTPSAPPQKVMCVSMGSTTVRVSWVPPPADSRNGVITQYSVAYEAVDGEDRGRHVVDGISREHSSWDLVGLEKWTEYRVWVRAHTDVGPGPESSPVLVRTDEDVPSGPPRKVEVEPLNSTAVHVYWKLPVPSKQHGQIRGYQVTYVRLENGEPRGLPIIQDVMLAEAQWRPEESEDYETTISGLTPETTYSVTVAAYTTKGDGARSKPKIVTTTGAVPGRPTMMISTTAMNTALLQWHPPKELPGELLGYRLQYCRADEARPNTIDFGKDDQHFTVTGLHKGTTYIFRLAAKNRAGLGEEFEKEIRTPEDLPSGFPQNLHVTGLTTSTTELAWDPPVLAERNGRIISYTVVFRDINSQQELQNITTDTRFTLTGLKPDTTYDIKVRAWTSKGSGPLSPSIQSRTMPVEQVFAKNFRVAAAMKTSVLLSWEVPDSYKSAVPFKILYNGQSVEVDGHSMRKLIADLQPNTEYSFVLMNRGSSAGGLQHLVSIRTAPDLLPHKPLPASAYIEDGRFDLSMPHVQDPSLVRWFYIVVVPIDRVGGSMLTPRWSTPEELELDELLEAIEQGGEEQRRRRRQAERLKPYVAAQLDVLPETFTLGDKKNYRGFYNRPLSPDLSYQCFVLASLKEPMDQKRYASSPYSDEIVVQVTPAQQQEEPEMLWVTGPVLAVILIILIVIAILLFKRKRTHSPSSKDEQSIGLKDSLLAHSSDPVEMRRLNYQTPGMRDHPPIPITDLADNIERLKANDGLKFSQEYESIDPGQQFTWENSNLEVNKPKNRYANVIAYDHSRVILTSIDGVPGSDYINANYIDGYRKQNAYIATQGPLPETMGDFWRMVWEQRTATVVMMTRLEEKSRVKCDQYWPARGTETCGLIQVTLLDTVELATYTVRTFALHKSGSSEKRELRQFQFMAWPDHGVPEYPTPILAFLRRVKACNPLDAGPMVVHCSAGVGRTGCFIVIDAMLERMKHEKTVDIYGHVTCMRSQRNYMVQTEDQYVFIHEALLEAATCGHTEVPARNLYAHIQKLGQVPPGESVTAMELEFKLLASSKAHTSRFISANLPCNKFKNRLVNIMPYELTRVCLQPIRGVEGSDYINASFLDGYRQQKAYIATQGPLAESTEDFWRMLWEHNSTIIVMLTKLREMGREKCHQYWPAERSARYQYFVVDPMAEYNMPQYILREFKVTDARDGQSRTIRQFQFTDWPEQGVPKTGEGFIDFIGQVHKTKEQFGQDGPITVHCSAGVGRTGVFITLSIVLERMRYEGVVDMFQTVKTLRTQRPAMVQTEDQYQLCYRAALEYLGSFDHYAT
Protocol: C) LAR Assay: Inhibition of the phosphatase LAR was performed according to reported procedures (Cho, H. Biochemistry 1991, 30, 6210; 1992, 31, 133; Cho, H. Prot. Sci., 1993, 2, 977). LAR was purchased from BIOMOL Research Laboratories, Inc.

SHP2 = biological target: T3, SHP2 (Homo sapiens, UniProt Q06124); assay: Phosphatase profile: SHP2 inhibition (DIFMUP fluorescence); assay type: biochemical; details: Table 6
T3 construct: made in house; host or cells: adenovirus vector
T3 sequence (Q06124 1-593): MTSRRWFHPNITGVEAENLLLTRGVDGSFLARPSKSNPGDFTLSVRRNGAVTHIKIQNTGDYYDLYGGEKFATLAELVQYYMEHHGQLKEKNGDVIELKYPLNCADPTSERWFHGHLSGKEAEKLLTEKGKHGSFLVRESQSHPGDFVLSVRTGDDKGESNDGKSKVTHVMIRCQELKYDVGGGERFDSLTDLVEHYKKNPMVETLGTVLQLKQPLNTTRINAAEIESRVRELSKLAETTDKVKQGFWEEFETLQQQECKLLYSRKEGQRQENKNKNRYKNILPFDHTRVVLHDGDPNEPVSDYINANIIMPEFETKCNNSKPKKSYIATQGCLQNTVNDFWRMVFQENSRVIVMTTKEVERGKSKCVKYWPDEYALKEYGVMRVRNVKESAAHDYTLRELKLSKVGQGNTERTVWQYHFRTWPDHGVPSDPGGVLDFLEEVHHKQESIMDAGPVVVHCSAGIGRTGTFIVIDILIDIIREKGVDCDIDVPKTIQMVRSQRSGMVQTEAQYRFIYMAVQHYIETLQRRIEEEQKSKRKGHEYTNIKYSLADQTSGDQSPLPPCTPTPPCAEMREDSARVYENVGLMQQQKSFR
Protocol: (§1) A) SHP1 and SHP2: SHP1 and SHP2 adenovirus vectors were prepared. SHP1 and SHP2 were independently over expressed, isolated and purified using FPLC. Enzyme was diluted to 1000-1400 FU/min. Enzyme (45 μL) was uniformLy plated in 96 well plates and treated with serial dilutions of compound (2 μL in DMSO). Compound and enzyme are allowed to incubate for 30 minutes at RT before the addition of DIFMUP (100 μM). The solutions are allowed to incubate at RT for 10 minutes prior to reading the fluorescence, to provide IC50 curves using LSW Data Analysis Tool Box (MDL).

SHP1 = biological target: T4, SHP1 (Homo sapiens, UniProt P29350); assay: Phosphatase profile: SHP1 inhibition (DIFMUP fluorescence); assay type: biochemical
T4 construct: made in house; host or cells: adenovirus vector
T4 sequence (P29350 whole entry): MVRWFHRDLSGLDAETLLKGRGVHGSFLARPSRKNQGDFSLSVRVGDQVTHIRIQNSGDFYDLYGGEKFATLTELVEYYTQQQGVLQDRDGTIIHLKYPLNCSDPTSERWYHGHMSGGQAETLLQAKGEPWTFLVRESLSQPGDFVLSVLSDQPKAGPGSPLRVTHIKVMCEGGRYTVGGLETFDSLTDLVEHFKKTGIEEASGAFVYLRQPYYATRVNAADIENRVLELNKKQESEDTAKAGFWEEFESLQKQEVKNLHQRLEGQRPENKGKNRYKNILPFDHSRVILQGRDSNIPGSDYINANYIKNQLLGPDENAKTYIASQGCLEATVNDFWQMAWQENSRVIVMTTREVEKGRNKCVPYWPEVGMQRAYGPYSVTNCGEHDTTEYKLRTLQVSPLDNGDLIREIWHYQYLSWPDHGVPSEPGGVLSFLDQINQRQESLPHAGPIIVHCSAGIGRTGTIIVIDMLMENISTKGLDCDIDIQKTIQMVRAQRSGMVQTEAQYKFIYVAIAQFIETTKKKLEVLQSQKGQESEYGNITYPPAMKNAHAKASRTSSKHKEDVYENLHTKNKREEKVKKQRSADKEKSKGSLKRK
Protocol: as §1

Row | PTP-1B IC50 (PTP-1B) | LAR IC50 (LAR) | IC50 (SHP2) | IC50 (SHP1; Table 6, read-out: SHP1 IC50) | IC50 (LAR) | IC50 (SHP1; FIG. 1 legend, read-out: SHP1 IC50 (FIG. 1 inhibition curve)) | SMILES | IC50 (SCG neurons)
1 | no inh. | no inh. | 18.4 µM | 5.41 µM | – | – | O=c1oc2c(Sc3ccc4ccccc4c3)cc(O)c(Sc3ccc4ccccc4c3)c2s1 [Compound 30, 4,7-Bis-((2-naphthyl)sulfanyl)-5-hydroxybenzo[1,3]oxathiol-2-one] | > 30 µM
2 | no inh. | – | 16.5 µM | 10.9 µM | > 100 µM | 10.6 µM | O=c1oc2c(Sc3ccc4ccccc4c3)cc(O)cc2s1 [Compound 23, 5-Hydroxy-7-((2-naphthy)sulfanyl)benzo[1,3]oxathiol-2-one] | 25 µM
